Key:
[1] = Liquid; for mass density: 101 kPa, Vibrating tube method; for vapor or sublimation pressure: Ebulliometric method (Recirculating still)
[2] = refractive index (Na D-line) (dimensionless); conditions: 293.15 K; 101.33 kPa; Liquid; Standard Abbe refractometry
[3] = xn = mol fraction of the nth substance listed; conditions: 101 kPa, Liquid, Vibrating tube method

CC(C)CO [2-methyl-1-propanol]
[1]
Conditions | mass density [kg/m3] | vapor or sublimation pressure [kPa]
333.15 K | 769.49 | 12.3
343.15 K | 760.79 | 21
353.15 K | 751.86 | 32.7

Conditions | refractive index
[2] | 1.3962

CC(C)CO [2-methyl-1-propanol] + CC(C)O
mass density [kg/m3], [3]
Conditions | 333.15 K | 343.15 K | 353.15 K
x2 = 0 | 769.49 | 760.79 | 751.86
x2 = 0.042 | 768.8 | 760.07 | 751.1
x2 = 0.1428 | 767.1 | 758.28 | 749.19
x2 = 0.1913 | 766.26 | 757.39 | 748.25
x2 = 0.2906 | 764.49 | 755.53 | 746.26
x2 = 0.3911 | 762.62 | 753.57 | 744.18
x2 = 0.4444 | 761.6 | 752.49 | 743.03
x2 = 0.4993 | 760.52 | 751.36 | 741.83
x2 = 0.5485 | 759.52 | 750.32 | 740.72
x2 = 0.594 | 758.58 | 749.33 | 739.66
x2 = 0.6911 | 756.5 | 747.14 | 737.33
x2 = 0.7445 | 755.31 | 745.88 | 735.99
x2 = 0.8481 | 752.91 | 743.36 | 733.3
x2 = 0.8925 | 751.85 | 742.24 | 732.1
x2 = 0.9491 | 750.48 | 740.78 | 730.53

CC(C)O [propan-2-ol]
[1]
Conditions | mass density [kg/m3] | vapor or sublimation pressure [kPa]
333.15 K | 749.23 | 38.5
343.15 K | 739.46 | 61.1
353.15 K | 729.1 | 92.3

Conditions | refractive index
[2] | 1.3774

CC(C)O [propan-2-ol] + CC(C)CO
[3], x1 = 1
Conditions | mass density [kg/m3]
333.15 K | 749.23
343.15 K | 739.46
353.15 K | 729.1
